Measured values as given in article PMC10913484, “Hydroxyhexylitaconic acids as potent IMP-type metallo-β-lactamase inhibitors for controlling carbapenem resistance in Enterobacterales” (Microbiology Spectrum, 2024).
Values after ≈ are worked out from the molar mass of the structure shown. Where two headings read alike, the source gives them in different places.

How the values were obtained:
[1] = tested on: K. pneumoniae MS5674 (NDM-1/VIM-1); assay: Susceptibility test, clinical isolate; assay type: cell-based; conditions: Klebsiella pneumoniae
Protocol: (§1) Susceptibility testing, based on the microdilution method, was performed according to the guidelines of the Clinical and Laboratory Standards Institute ([36]).

[2] = tested on: K. pneumoniae AR0076 (VIM-1); assay: Susceptibility test, clinical isolate; assay type: cell-based; conditions: Klebsiella pneumoniae
Protocol: as §1

[3] = tested on: K. pneumoniae NUBL-23 (IMP-6); assay: Susceptibility test, clinical isolate; assay type: cell-based; conditions: Klebsiella pneumoniae
Protocol: as §1

[4] = tested on: K. oxytoca NUBL-827 (IMP-1); assay: Susceptibility test, clinical isolate; assay type: cell-based; conditions: Klebsiella oxytoca
Protocol: as §1

E. coli 426 (IMP-1) = assay: Susceptibility test, clinical isolate; assay type: cell-based; conditions: Escherichia coli
Protocol: as §1

[5] = tested on: K. pneumoniae AR0034 (IMP-4); assay: Susceptibility test, clinical isolate; assay type: cell-based; conditions: Klebsiella pneumoniae
Protocol: as §1

[6] = tested on: K. pneumoniae NUBL-8 (IMP-1); assay: Susceptibility test, clinical isolate; assay type: cell-based; conditions: Klebsiella pneumoniae
Protocol: as §1

E. coli 465 (IMP-1) = assay: Susceptibility test, clinical isolate; assay type: cell-based; conditions: Escherichia coli
Protocol: as §1

[7] = tested on: E. cloacae NUBL-5 (IMP-1); assay: Susceptibility test, clinical isolate; assay type: cell-based; conditions: Enterobacter cloacae
Protocol: as §1

[8] = tested on: P. penneri E11-M475 (IMP-1); assay: Susceptibility test, clinical isolate; assay type: cell-based; conditions: Proteus penneri
Protocol: as §1

E. coli NUBL-22 (IMP-6) = assay: Susceptibility test, clinical isolate; assay type: cell-based; conditions: Escherichia coli
Protocol: as §1

E. coli NUBL-24 (IMP-1) = assay: Susceptibility test, clinical isolate; assay type: cell-based; conditions: Escherichia coli
Protocol: as §1

E. coli DH5α pBC-IMP-1 = assay: Susceptibility test (microdilution), transformant; assay type: cell-based; conditions: Escherichia coli
Protocol: as §1

E. coli DH5α pBC-NDM-1 = assay: Susceptibility test (microdilution), transformant; assay type: cell-based; conditions: for MPM MIC: E. coli DH5α pBC-NDM-1
Protocol: as §1

IMP-6 = biological target: T1, IMP-6 (Serratia marcescens, UniProt P52699, S214G); assay: In vitro inhibition assay (IPM hydrolysis); assay type: biochemical
T1 construct: made in house
Protocol: (§2) MBLs were incubated with HHIAs in 20 mM HEPES buffer (pH 7.5) containing 200 mM NaCl and 50 µg/mL BSA at 30°C for 5 min. IPM was added at a concentration of 100 µM, and the rate of IPM hydrolysis was monitored at 297 nm. The initial velocity (v0) rates were plotted against HHIA’s logarithmic concentrations, and the data were fitted to a four-parameter variable slope to obtain the half-maximal inhibitor concentration (IC50) values using GraphPad Prism 9 software (GraphPad Software). The inhibition constant (Ki) was determined as follows: v0 was measured after varying the concentrations of IPM and HHIAs, and inverse v0 (1/v0) was plotted against the inverse IPM concentration [1/(IPM)]. Lineweaver–Burk plots were created to obtain Ki values under the competitive inhibition model using the SigmaPlot 14 suite (Hulinks).

SMB-1 = assay: In vitro inhibition assay (IPM hydrolysis); assay type: biochemical; conditions: even at high doses (100 µM)
Protocol: as §2

VIM-2 = biological target: T2, VIM-2 (Escherichia coli, UniProt Q5U7L7); assay: In vitro inhibition assay (IPM hydrolysis); assay type: biochemical
T2 construct: made in house
Protocol: as §2

IMP-1 = biological target: T3, IMP-1 (Serratia marcescens, UniProt P52699); assay: In vitro inhibition assay (IPM hydrolysis); assay type: biochemical
T3 construct: made in house
Protocol: as §2

NDM-1 = biological target: T4, NDM-1 (Klebsiella pneumoniae, UniProt C7C422); assay: In vitro inhibition assay (IPM hydrolysis); assay type: biochemical; conditions: even at high doses (100 µM)
T4 construct: made in house
Protocol: as §2

[9] = +HHIA 6.25 µg/mL, read-out: IPM MIC
[10] = +HHIA 6.25 μg/mL, read-out: MPM MIC
[11] = +HHIA 25 µg/mL, read-out: IPM MIC
[12] = +HHIA 25 μg/mL, read-out: MPM MIC
[13] = +HHIA 100 µg/mL, read-out: IPM MIC
[14] = +HHIA 100 μg/mL, read-out: MPM MIC

T3 sequence (P52699 19-246, looked up, species assumed): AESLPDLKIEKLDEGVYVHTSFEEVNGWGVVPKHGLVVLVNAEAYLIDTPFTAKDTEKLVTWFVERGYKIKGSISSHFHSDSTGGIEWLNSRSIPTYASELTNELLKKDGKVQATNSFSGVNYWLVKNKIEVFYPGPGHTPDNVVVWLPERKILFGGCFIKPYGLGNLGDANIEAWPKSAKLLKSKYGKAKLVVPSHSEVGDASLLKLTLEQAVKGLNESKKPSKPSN
T1 sequence (P52699 19-246 S214G): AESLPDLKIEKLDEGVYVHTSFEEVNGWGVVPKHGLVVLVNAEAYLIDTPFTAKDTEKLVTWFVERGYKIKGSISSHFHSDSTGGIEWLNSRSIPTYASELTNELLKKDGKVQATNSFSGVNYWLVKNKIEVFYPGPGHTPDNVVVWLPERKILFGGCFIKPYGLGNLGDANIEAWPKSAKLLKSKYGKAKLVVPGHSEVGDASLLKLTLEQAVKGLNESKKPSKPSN
T4 sequence (C7C422 29-270 limits assumed): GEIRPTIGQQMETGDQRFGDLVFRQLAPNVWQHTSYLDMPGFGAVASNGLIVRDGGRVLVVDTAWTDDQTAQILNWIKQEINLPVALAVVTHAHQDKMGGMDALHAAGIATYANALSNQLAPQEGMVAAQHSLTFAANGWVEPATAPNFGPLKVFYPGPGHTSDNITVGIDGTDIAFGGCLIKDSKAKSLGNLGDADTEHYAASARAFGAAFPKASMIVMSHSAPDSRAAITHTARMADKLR

C=C(C(=O)O)C(CCCCCCO)C(=O)O (stereo not drawn) [10-HHIA, 10-hydroxyhexylitaconic acid]
MIC [1, 9]: 32 µg/mL (≈ 139 µM)
MIC [1, 10]: > 64 µg/mL
MIC [1, 11]: 64 µg/mL (≈ 278 µM)
MIC [1, 12]: > 64 µg/mL
MIC [1, 13]: 32 µg/mL (≈ 139 µM)
MIC [1, 14]: 64 µg/mL (≈ 278 µM)
MIC [2, 9]: 32 µg/mL (≈ 139 µM)
MIC [2, 10]: 32 µg/mL (≈ 139 µM)
MIC [2, 11]: 32 µg/mL (≈ 139 µM)
MIC [2, 12]: 32 µg/mL (≈ 139 µM)
MIC [2, 13]: 16 µg/mL (≈ 69.5 µM)
MIC [2, 14]: 32 µg/mL (≈ 139 µM)
MIC [3, 9]: 0.5 µg/mL (≈ 2.17 µM)
MIC [3, 10]: 32 µg/mL (≈ 139 µM)
MIC [3, 11]: 0.25 µg/mL (≈ 1.09 µM)
MIC [3, 12]: 2 µg/mL (≈ 8.69 µM)
MIC [3, 13]: 0.5 µg/mL (≈ 2.17 µM)
MIC [3, 14]: 0.25 µg/mL (≈ 1.09 µM)
MIC [4, 9]: 8 µg/mL (≈ 34.7 µM)
MIC [4, 10]: 16 µg/mL (≈ 69.5 µM)
MIC [4, 11]: 4 µg/mL (≈ 17.4 µM)
MIC [4, 12]: 8 µg/mL (≈ 34.7 µM)
MIC [4, 13]: 2 µg/mL (≈ 8.69 µM)
MIC [4, 14]: 1 µg/mL (≈ 4.34 µM)
MIC (E. coli 426 (IMP-1); [9]): 8 µg/mL (≈ 34.7 µM)
MIC (E. coli 426 (IMP-1); [10]): 8 µg/mL (≈ 34.7 µM)
MIC (E. coli 426 (IMP-1); [11]): 4 µg/mL (≈ 17.4 µM)
MIC (E. coli 426 (IMP-1); [12]): 1 µg/mL (≈ 4.34 µM)
MIC (E. coli 426 (IMP-1); [13]): 2 µg/mL (≈ 8.69 µM)
MIC (E. coli 426 (IMP-1); [14]): 0.25 µg/mL (≈ 1.09 µM)
MIC ([5]; +HHIA 6.25 µg/mL, K. pneumoniae AR0034 (IMP-4), read-out: IPM MIC): 2 µg/mL (≈ 8.69 µM)
MIC ([5]; +HHIA 6.25 μg/mL, K. pneumoniae AR0034 (IMP-4), read-out: MPM MIC): 4 µg/mL (≈ 17.4 µM)
MIC ([5]; +HHIA 25 µg/mL, K. pneumoniae AR0034 (IMP-4), read-out: IPM MIC): 1 µg/mL (≈ 4.34 µM)
MIC ([5]; +HHIA 25 μg/mL, K. pneumoniae AR0034 (IMP-4), read-out: MPM MIC): 0.5 µg/mL (≈ 2.17 µM)
MIC ([5]; +HHIA 100 µg/mL, K. pneumoniae AR0034 (IMP-4), read-out: IPM MIC): 0.5 µg/mL (≈ 2.17 µM)
MIC ([5]; read-out: MPM MIC): 0.125 µg/mL (≈ 0.543 µM)
MIC [6, 9]: 2 µg/mL (≈ 8.69 µM)
MIC [6, 10]: 8 µg/mL (≈ 34.7 µM)
MIC [6, 11]: 1 µg/mL (≈ 4.34 µM)
MIC [6, 12]: 2 µg/mL (≈ 8.69 µM)
MIC [6, 13]: 0.5 µg/mL (≈ 2.17 µM)
MIC [6, 14]: 0.25 µg/mL (≈ 1.09 µM)
MIC (E. coli 465 (IMP-1); [9]): 16 µg/mL (≈ 69.5 µM)
MIC (E. coli 465 (IMP-1); [10]): 16 µg/mL (≈ 69.5 µM)
MIC (E. coli 465 (IMP-1); [11]): 4 µg/mL (≈ 17.4 µM)
MIC (E. coli 465 (IMP-1); [12]): 4 µg/mL (≈ 17.4 µM)
MIC (E. coli 465 (IMP-1); [13]): 1 µg/mL (≈ 4.34 µM)
MIC (E. coli 465 (IMP-1); [14]): 0.25 µg/mL (≈ 1.09 µM)
MIC [7, 9]: 8 µg/mL (≈ 34.7 µM)
MIC [7, 10]: 16 µg/mL (≈ 69.5 µM)
MIC [7, 11]: 4 µg/mL (≈ 17.4 µM)
MIC [7, 12]: 16 µg/mL (≈ 69.5 µM)
MIC [7, 13]: 1 µg/mL (≈ 4.34 µM)
MIC [7, 14]: 8 µg/mL (≈ 34.7 µM)
MIC [8, 9]: > 64 µg/mL
MIC [8, 10]: > 64 µg/mL
MIC [8, 11]: > 64 µg/mL
MIC [8, 12]: > 64 µg/mL
MIC [8, 13]: 64 µg/mL (≈ 278 µM)
MIC [8, 14]: 16 µg/mL (≈ 69.5 µM)
MIC (E. coli NUBL-22 (IMP-6); [9]): 1 µg/mL (≈ 4.34 µM)
MIC (E. coli NUBL-22 (IMP-6); [10]): 16 µg/mL (≈ 69.5 µM)
MIC (E. coli NUBL-22 (IMP-6); [11]): 0.5 µg/mL (≈ 2.17 µM)
MIC (E. coli NUBL-22 (IMP-6); [12]): 8 µg/mL (≈ 34.7 µM)
MIC (E. coli NUBL-22 (IMP-6); [13]): 0.5 µg/mL (≈ 2.17 µM)
MIC (E. coli NUBL-22 (IMP-6); [14]): 1 µg/mL (≈ 4.34 µM)
MIC (E. coli NUBL-24 (IMP-1); +HHIA 6.25 µg/mL, E. coli NUBL-24 (IMP-1), read-out: IPM MIC): 4 µg/mL (≈ 17.4 µM)
MIC (E. coli NUBL-24 (IMP-1); +HHIA 6.25 μg/mL, E. coli NUBL-24 (IMP-1), read-out: MPM MIC): 4 µg/mL (≈ 17.4 µM)
MIC (E. coli NUBL-24 (IMP-1); +HHIA 25 µg/mL, E. coli NUBL-24 (IMP-1), read-out: IPM MIC): 1 µg/mL (≈ 4.34 µM)
MIC (E. coli NUBL-24 (IMP-1); +HHIA 25 μg/mL, E. coli NUBL-24 (IMP-1), read-out: MPM MIC): 0.5 µg/mL (≈ 2.17 µM)
MIC (E. coli NUBL-24 (IMP-1); +HHIA 100 µg/mL, E. coli NUBL-24 (IMP-1), read-out: IPM MIC): 1 µg/mL (≈ 4.34 µM)
MIC (E. coli NUBL-24 (IMP-1); read-out: MPM MIC): 0.125 µg/mL (≈ 0.543 µM)
MIC (E. coli DH5α pBC-IMP-1; read-out: MPM MIC, +agent 25 μg/mL): 0.125 µg/mL (≈ 0.543 µM)
MIC (E. coli DH5α pBC-IMP-1; read-out: MPM MIC, +agent 100 μg/mL): ≤ 0.0625 µg/mL
MPM MIC (E. coli DH5α pBC-NDM-1; +agent 25 μg/mL): 64 µg/mL
MPM MIC (E. coli DH5α pBC-NDM-1; +agent 100 μg/mL): 64 µg/mL
MIC (E. coli DH5α pBC-NDM-1; Escherichia coli, read-out: MPM MIC): 64 µg/mL (≈ 278 µM)
Ki (IMP-6): 21 µM
Inhibition of hydrolyzing activity of SMB-1 (SMB-1): did not inhibit
Inhibitory activity against VIM-2 (VIM-2): moderate
IC50 (IMP-1): 31.6 µM
Ki (IMP-1): 5 µM
Inhibition mode for IMP-1 (IMP-1; Lineweaver–Burk plots): competitive inhibitors
Inhibition of hydrolyzing activity of NDM-1 (NDM-1): did not inhibit
